Activity calls are given as the source filed them. The rule behind the calls is not given here.

The series concerns rodent carcinogenicity bioassays, tumor incidence. Nature of the series: CCRIS carcinogenicity studies. In short, it runs like this: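 Archive of carcinogenicity, mutagenicity, tumor promotion and tumor inhibition results drawn from journals, NCI reports and other sources, expert-reviewed; covers 1985-2011 and is no longer updated.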

Consider `CO[C@@H]1[C@@H](O[C@@H]2O[C@H](C)[C@@H](O[C@H]3C[C@@](C)(O)[C@@H](OC(=O)CC(C)C)[C@H](C)O3)[C@H](N(C)C)[C@H]2O)[C@@H](CC=O)C[C@@H](C)[C@@H](O)/C=C/C=C/C[C@@H](C)OC(=O)C[C@H]1OC(C)=O`, for which the carcinogen call is “inactive; negative” (Species: RAT, Strain/Sex: F344/FEMALE, Route: ORAL, Dose: 0, 1.25, 2.5% IN DIET FOR 104 WK (STUDY DURATION: 106 WK), Dose: 0, 1.25, 2.5% IN DIET FOR 104 WK (STUDY DURATION: 106 WK)) and “inactive; negative” (Species: RAT, Strain/Sex: F344/MALE, Route: ORAL, Dose: 0, 1.25, 2.5% IN DIET FOR 104 WK (STUDY DURATION: 106 WK)).

For `C=C(C#N)C(=O)O`, the carcinogen call (Species: RAT, Strain/Sex: F344/FEMALE, Route: SUBCUTANEOUS IMPLANT, Dose: 0.12 G INJECTED INTO 2 SITES ON THE LATERAL ABDOMEN, 2 SITES ON THE LATERAL CHEST REGION AND 1 SITE ON THE BACK (STUDY D, Tumor Site: Type of Lesion: IMPLANT SITE: MALIGNANT HISTIOCYTOMA) was “active; positive”.

Turning to `Cc1c(N(C)CS(=O)(=O)O)c(=O)n(-c2ccccc2)n1C`, the carcinogen call by setting is: (Species: MOUSE, Strain/Sex: B6C3F1/FEMALE, Route: ORAL, Dose: 0, 0.25, 1% IN DRINKING WATER FOR 78 WK (STUDY DURATION: 86 WK), Dose: 0, 0.25, 1% IN DRINKING WATER FOR 78 WK (STUDY DURATION: 86 WK), Tumor Site: Type of Lesion: LIVER: ADENOMA) “active; positive”; (Species: MOUSE, Strain/Sex: B6C3F1/MALE, Route: ORAL, Dose: 0, 0.125, 0.5% IN DRINKING WATER FOR 78 WK (STUDY DURATION: 86 WK), Dose: 0, 0.125, 0.5% IN DRINKING WATER FOR 78 WK (STUDY DURATION: 86 WK), Tumor Site: Type of Lesion: LIVER: ADENOMA) “active; positive”; (Species: RAT, Strain/Sex: F344/MALE, Route: ORAL, Dose: 0.4% IN DRINKING WATER FOR 72 WK (STUDY DURATION: 83 WK)) “inactive; negative”; (Species: RAT, Strain/Sex: WISTAR/FEMALE, Route: ORAL, Dose: 0, 1000, 3000 PPM IN DIET FOR 24 MO (STUDY DURATION: 30 MO), Dose: 0, 1000, 3000 PPM IN DIET FOR 24 MO (STUDY DURATION: 30 MO)) “inactive; negative”; (Species: RAT, Strain/Sex: WISTAR/MALE, Route: ORAL, Dose: 0, 1000, 3000 PPM IN DIET FOR 24 MO (STUDY DURATION: 30 MO), Dose: 0, 1000, 3000 PPM IN DIET FOR 24 MO (STUDY DURATION: 30 MO)) “inactive; negative”.
